“And” between values parts separate entries of the source, which are not always exact repeats. Identical values can stand only once. Marks after values point to notes of the source that are not given here. Each block holds one molecule with its values, some of them ahead of it.
Experiments:
[1] = tested on: acetic acid induced chronic gastric ulcer; assay: Acetic acid induced chronic gastric ulcer in rats; type: in vivo, rat
Method: In our experiments the method […] of Okabe et al was used. Male Wistar rats of 150-170 g were narcotize part of the stomach.
The test compound was given p.o. on the fifth day after the operation for seven days. The animals were euthanized with ether after 24 hours of the last dose and the abdomen was macroscopically examined (exravasation, accretion), the stomach was excised and the diameters of ulcers were measured.

[2] = tested on: carrageenan induced paw oedema; assay: Inhibition of carrageenan induced oedema in rats; type: in vivo, rat; settings: for ED30: p.o.
Method: The treated paw was immersed up to the tibio-tarsal articulation into the chamber and the volume of displaced liquid was determined as the degree of the inflammation. Degree of inflammation (ml)=volume after the CARR treatment (ml)−volume before the CARR treatment (ml)
The degree of the anti-inflammatory effect of the treated group (which obtained test agent) was compared to that of the control group (which obtained only vehicle). The test compound and the vehicle were given orally by blunt-ended needle cannula one hour before the CARR treatment. The volume of the treated paw was measured at 3 and 5 hours after the CARR treatment and the change in the degree of inflammation in % was calculated according to the following formula: Anti-inflammatory activity %=100×[control group (ml)−treated group (ml)/control group (ml)]
[…] Anti-inflammatory activity of the compounds was determined in % at 4 and 6 hours after p.o. treatment and ED30 was calculated.

[3] = tested on: alcohol induced mucosa injury; assay: Gastric lesions induced by acidified alcohol in rats; type: in vivo, rat; settings: for Ulcer index: 40 minutes before ethanol+HCl, n = 10
Method: Male Wistar rats weighing 140-160 g were treated p.o. with a 1:0.02 mixture of dry ethanol and concentrated HCl (0.5 ml) in order to induce gastric lesions. One hour later the animals were euthanized with ether and the stomach excised along its greater curvature, the mucosa was examined for the presence of lesions.
Severity of lesions: • 1: petechiae or erosion with length of 1 mm • 2: erosion with length between 2 and 3 mm • 3: erosion with length between 3 and 4 mm • 4: erosion with length between 4 and 5 mm
If the lesion was longer than 5 mm, it was scored 4 point as many times as the total length of the lesion divisible by four and the rest of the length was evaluated according to the above scale. The degree of injury of mucosa was characterized by ulcer index. Ulcer index (severity of lesion×number of lesion) was calculated for every animal and the degree of injury of mucosa in the groups of tested animals was characterized by the mean of ulcer index of different groups of animals.
Test compounds were given p.o. 40 minutes before the ethanol+HCl treatment

[4] = tested on: carrageenan induced chronic hyperalgesia; assay: Carrageenan induced chronic hyperalgesia model in rats (Randall-Selitto); type: in vivo, rat; settings: chronic model, 30 mg/kg p.o.
Method: (§1) Oedema (inflammation) was induced by subcutaneous injection of carrageenan (CARR) suspension in the subplantar region of the right hind paw of male Wistar rats, weighted 140-190 g (n=8-12 animal/group). The nociceptive thresholds of the inflamed hind paw after painful mechanical stimuli were measured with analgesimeter (Ugo Basile, type: 37215, Italy). The apparatus is suitable for the measuring of the extent and the latency of the pain reaction threshold of the sensitized paw after painful stimuli. The analgesics elevate the low pain reaction threshold of inflamed paw and the degree of its antinociceptive effect is expressed in reversal %.
(§2) An increasing pressure was applied to the paw and the withdrawal threshold was determined as the first sign (squeaking and/or struggling) of pain response. The pressure threshold was shown in grams. The average value of the hind paw withdrawal obtained with untreated right paw was regarded as the basal hind paw withdrawal (average 80-110 grams.) After determining the baseline threshold the animals received carrageenan injection that produced an intense inflammation associated with hyperalgesia. The mechanical threshold was determined at various times to establish the magnitude and duration of the hyperalgesia. The maximum reduction in threshold was measured 2-3 h after injection (the pain threshold of the inflamed paw is 20-30 g, which was decreased by 65-80% in comparing to the basic value).
(§3) Acute hvneralgesia model: the animals were treated with the test compounds and celecoxib (10 and 30 mg/kg p.o.) one hour after CARR treatment (100 μl 2% suspension). Pain threshold was measured at 2 and 4 hours after the treatment. Chronic hyperalgesia model: extended inflammation and decreased pain threshold were induced with higher dose of CARR. Pain threshold of inflamed paw was measured 24 hours after CARR treatment (150 μl, 2% suspension) then test compound and Celecoxib (30 mg/kg p.o.) were given to the animals. Pain threshold of treated paw was measured from 30 minutes till 3 hours after treatment.
(§4) Control groups in both models after CARR treatment were treated with vehicle p.o. at the same intervals as the test compounds. In both models the analgesic effect of the compounds was expressed in the reversal (%) of the decrease of the pain threshold. Reversal %=[mean of treated groupTxh(g)−treated groupT0h(g)]/[basic mean of treated groupT-1h(g)−treated groupT0h(g)] • T−1 h=mean of the pain threshold of paw before CARR treatment in acute model (g) • T0h=mean of the pain threshold before treatment 1 hour after CARR treatment in acute model (g) • T×h=pain threshold after CARR treatment in the measuring times (1 h, 2 h, 3 h) in acute model (g)

[5] = tested on: carrageenan induced chronic hyperalgesia; assay: as above; type: in vivo, rat
[6] = tested on: carrageenan induced acute hyperalgesia; assay: Carrageenan induced acute hyperalgesia in rats (Randall-Selitto model); type: in vivo, rat
Method: as §1, §2, §3, §4

SMILES: COc1ccc2c(c1)c(CC(=O)O)c(C)n2C(=O)c1ccc(Cl)cc1 [Indometacin]
Area of ulcer (mm^2) ([1]; 2.0 mg/kg p.o. for seven days): 39.0 ± 5** mm^2
Change of bodyweight (g) + (increase) − (decrease) ([1]; 2.0 mg/kg p.o. for seven days): +2 ± 0.6 g

SMILES: CC(=O)ONS(=O)(=O)c1ccc(-n2nc(C(F)(F)F)cc2-c2ccc(C)cc2)cc1 [Example 11, N-acetoxy-4-(5-p-methylphenyl-3-trifluoromethyl-pyrazol-1-yl)-benzenesulamide]
melting point: 138 to 140 °C

melting point: 152 to 155 °C
SMILES: Cc1ccc(-c2cc(C(F)(F)F)nn2-c2ccc(S(=O)(=O)NOC(=O)c3ccccc3)cc2)cc1 [Example 12, N-benzoyloxy-4-(5-p-methylphenyl-3-trifluoromethyl-pyrazol-1-yl)-benzenesulfonamide]

melting point: 176 to 178 °C
SMILES: Cc1ccc(-c2cc(C(F)(F)F)nn2-c2ccc(S(=O)(=O)NOCCC(=O)O)cc2)cc1 [Example 9, 3-[4-(5-p-methylphenyl-3-trifluoromethyl-pyrazol-1-yl)-benzenesulfonylaminooxy]-propionic acid]

SMILES: Cc1ccc(-c2cc(C(F)(F)F)nn2-c2ccc(S(N)(=O)=O)cc2)cc1 [Celecoxib, reference compound]
Inhibiton of carrageenan induced edema % ([2]; 3 mg/kg p.o., 4 hours after treatment): 16 ± 3%
Inhibiton of carrageenan induced edema % ([2]; 3 mg/kg p.o., 6 hours after treatment): 12 ± 4%
Inhibiton of carrageenan induced edema % ([2]; 10 mg/kg p.o., 4 hours after treatment): 24 ± 4%
Inhibiton of carrageenan induced edema % ([2]; 10 mg/kg p.o., 6 hours after treatment): 18 ± 2%
Inhibiton of carrageenan induced edema % ([2]; 30 mg/kg p.o., 4 hours after treatment): 32 ± 5%
Inhibiton of carrageenan induced edema % ([2]; 30 mg/kg p.o., 6 hours after treatment): 26 ± 4%
anti-inflammatory activity as compared to the control group ([2]; 6 hours after the treatment): less than 30%
ED30 ([2]; 4 hours after treatment): 23 mg/kg and 23.0 mg/kg
ED30 ([2]; 6 hours after treatment): >30 mg/kg
Ulcer index ([3]; 15 mg/kg p.o.): 80.6 ± 2.3
Ulcer index ([3]; 30 mg/kg p.o.): 49.4 ± 4.5
Ulcer index ([3]; 60 mg/kg p.o.): 44.4 ± 6.4
effect on alcohol induced mucosa injury ([3]; p.o.): inhibited the alcohol induced mucosa injury
Analgesic effect (reversal %) after p.o. treatment ([4]; 30 min): 54%
Analgesic effect (reversal %) after p.o. treatment ([4]; 1 hour): 34%
Analgesic effect (reversal %) after p.o. treatment ([4]; 2 hour): 34%
Analgesic effect (reversal %) after p.o. treatment ([4]; 3 hour): 26%
analgesic effect, reversal ([4]; time not stated): 54%
Analgesic effect (reversal %) after p.o. treatment ([5]; 10 mg/kg p.o., 30 min): 24%
Analgesic effect (reversal %) after p.o. treatment ([5]; 10 mg/kg p.o., 1 hour): 17%
Analgesic effect (reversal %) after p.o. treatment ([5]; 10 mg/kg p.o., 2 hour): 0%
Analgesic effect (reversal %) after p.o. treatment ([5]; 30 mg/kg p.o., 4 hour): 20%
Area of ulcer (mm^2) ([1]; 30 mg/kg p.o. for seven days): 8.2 ± 2.0* mm^2
Change of bodyweight (g) + (increase) − (decrease) ([1]; 30 mg/kg p.o. for seven days): +32 ± 4 g
Recovery of acetic acid induced ulcer ([1]; p.o. for seven days): inhibited significantly
Analgesic effect (reversal %) after p.o. treatment ([6]; 10 mg/kg p.o., 1 hour): 0%
Analgesic effect (reversal %) after p.o. treatment ([6]; 10 mg/kg p.o., 2 hour): 0%
Analgesic effect (reversal %) after p.o. treatment ([6]; 10 mg/kg p.o., 3 hour): 0%
Analgesic effect (reversal %) after p.o. treatment ([6]; 30 mg/kg p.o., 1 hour): 24%
Analgesic effect (reversal %) after p.o. treatment ([6]; 30 mg/kg p.o., 2 hour): 3%
Analgesic effect (reversal %) after p.o. treatment ([6]; 30 mg/kg p.o., 3 hour): 0%
analgesic effect, reversal ([6]; 30 mg/kg p.o., time not stated): 24%

melting point: 134 to 136 °C
SMILES: Cc1ccc(-c2cc(C(F)(F)F)nn2-c2ccc(S(=O)(=O)NOC(=O)C(C)(C)C)cc2)cc1 [Example 13, N-pivaloyloxy-4-(5-p-methylphenyl-3-trifluoromethyl-pyrazol-1-yl)-benzenesulfonamide]

melting point: 137 to 138 °C
SMILES: CCOC(=O)C(C)ONS(=O)(=O)c1ccc(-n2nc(C(F)(F)F)cc2-c2ccc(C)cc2)cc1 (stereo not drawn) [Example 10, 2-[4-(5-p-methylphenyl-3-trifluoromethyl-pyrazol-1-yl)-benzenesulfonylaminooxy]-propionic acid ethyl ester]

melting point: 143 to 144 °C
SMILES: CCOC(=O)CONS(=O)(=O)c1ccc(-n2nc(C(F)(F)F)cc2-c2ccc(C)cc2)cc1 [Example 8, [4-(5-p-methylphenyl-3-trifluoromethyl-pyrazol-1-yl)-benzenesulfonylaminooxy]-acetic acid ethyl ester]

melting point: 224 to 225 °C
SMILES: Cc1ccc(-c2cc(C(F)(F)F)nn2-c2ccc(S(=O)(=O)NOCC(=O)O)cc2)cc1 [Example 7, [4-(5-p-methylphenyl-3-trifluoromethyl-pyrazol-1-yl)-benzenesulfonylaminooxy]-acetic acid]

SMILES: Cc1ccc(-c2cc(C(F)(F)F)nn2-c2ccc(S(=O)(=O)NOC(C)C(=O)[O-])cc2)cc1.[Na+] (racemic) [Example 6, Disodium (R,S)-2-[4-(5-p-methylphenyl-3-trifluoromethyl-pyrazol-1-yl)-benzenesulfonyl-aminooxy]-propionic acid monohydrate]
anti-inflammatory activity compared with celecoxib ([2]; CARR induced oedema test): significantly (p<0.05) higher

— US7723370B2, “1, 2-diaryl pyrazoles useful as analgetic and antiinflammatory agents” (Richter Gedeon Vegyeszeti Gyar RT., priority 2005, dated 2010)
